ChEMBL document CHEMBL1201862, “PubChem BioAssay data set” (2004)
The source made the active and inactive calls.

Key:
[1] = biological target: Beta-galactosidase (Escherichia coli, UniProt Q8VNN2); experiment: PubChem AID 485352; type: functional
[2] = biological target: T1, Type-1 angiotensin II receptor (Homo sapiens, UniProt P30556); experiment: antagonism of angiotensin II type 1 receptor – cell-based, uHTS hits, selectivity assay for APJ receptor antagonist project, dose response (AID 463214); type: functional;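 also: antagonist potency against angiotensin II stimulated AT1 response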
T1 sequence (P30556 whole entry): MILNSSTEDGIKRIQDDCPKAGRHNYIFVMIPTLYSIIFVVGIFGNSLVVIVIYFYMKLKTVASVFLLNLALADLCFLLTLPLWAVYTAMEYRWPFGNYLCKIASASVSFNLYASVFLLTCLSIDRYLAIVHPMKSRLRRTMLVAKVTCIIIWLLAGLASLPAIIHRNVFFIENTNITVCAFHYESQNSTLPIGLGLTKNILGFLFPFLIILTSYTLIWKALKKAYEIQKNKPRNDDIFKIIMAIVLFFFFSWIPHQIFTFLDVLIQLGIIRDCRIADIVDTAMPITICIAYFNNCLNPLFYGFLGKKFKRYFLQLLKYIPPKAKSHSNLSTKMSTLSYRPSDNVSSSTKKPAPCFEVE

[3] = tested on: HeLa; experiment: ATP-based viability loss in HeLa cells – cell-based, CellTiter-Glo luminescence, cherry-pick samples, cytotoxicity control for MITF activator project, dose response (AID 540259); type: functional; settings: Homo sapiens
[4] = NIH-3T3 fibroblast cytotoxicity, dose response, cytotoxicity control, cell-based, fluorescence, Alamar Blue, secondary assay (AID 2327); type: functional;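 also: NIH-3T3 mouse fibroblasts cultured with fluconazole at 8 µg/mL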
[5] = luciferase reporter signal suppression in cells – H4 neuroglioma cells, luminescence, dose response (AID 1990); type: functional, cell-based
[6] = tested on: HEK293; experiment: inhibition of NOD1-driven NF-kB reporter – cell-based, luminescence, uHTS, primary screen (AID 1578); type: functional; settings: Homo sapiens
[7] = tested on: BJ; experiment: BJ-TERT fibroblast viability loss – cell-based, RAS-independent, luminescence, dose response (AID 1933); type: functional; settings: Homo sapiens
[8] = biological target: Protein Rev (Human immunodeficiency virus type 1 group M subtype B (isolate WMJ22)(HIV-1), UniProt P05866); experiment: inhibitors of Rev protein–RRE RNA complex – biochemical, protein-RNA interaction, dose response (AID 842); design: species or system Human immunodeficiency virus 1
[9] = tested on: HEK293; experiment: cells; type: functional, cell-based; settings: Homo sapiens
[10] = Luminescence Cell-Based Dose Response HTS to Identify Inhibitors of 5'UTR Stem-Loop Driven Prion Protein mRNA Translation in H4 Neuroglioblastoma Cells. [Related pubchem assays: 1827 (Project Summary), 1813 (Primary HTS)]; type: functional
[11] = alpha-synuclein stem-loop luciferase translation blockers – H4 neuroglioma cells, luminescence, confirmation (AID 1988); type: functional, cell-based
[12] = tested on: BJ; experiment: cells; type: functional, cell-based; settings: Homo sapiens
[13] = fluconazole-exposed Candida albicans growth modulators – fluorescence, retest, confirmation (AID 2467); type: functional, cell-based
[14] = tested on: HEK293; experiment: cells; type: functional, cell-based; settings: Homo sapiens; remark: listed apart in the source
[15] = biological target: Nucleotide-binding oligomerization domain-containing protein 2 (Homo sapiens, UniProt Q9HC29); experiment: inhibition of NOD2-driven NF-kB reporter – cell-based, luminescence, uHTS, HEK293 (AID 1566); type: functional
[16] = tested on: HEK293; experiment: NOD2 signaling inhibitors in MDP-stimulated cells, cell-based, uHTS, luminescence (AID 2001); type: functional; settings: Homo sapiens
[17] = tested on: HEK293; experiment: cells; type: functional, cell-based; settings: Homo sapiens; remark: listed apart in the source
[18] = viability of PTEN-deleted HCT116 cells – cell-based, HCT116 PTEN knockout, dose response (AID 1047); type: functional;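 also: HCT116 colon tumor cells with PTEN knocked out; cells exposed to compound for 60 hours before readout; potency for loss of cell viability measured by luminescence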
[19] = biological target: T2, Serine/threonine-protein phosphatase (Candida dubliniensis (strain CD36 / CBS 7987 / NCPF 3949 / NRRLY-17841) (Yeast), UniProt B9W6M3); experiment: blockers of CaCl2-induced CDRE-lacZ signaling – S. cerevisiae, luminescence, secondary, dose response (AID 2388); type: functional, cell-based;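 also: yeast reporter cells carrying a calcineurin-responsive lacZ construct stimulated with calcium chloride; luminescent beta-galactosidase reporter signal in whole cells rather than isolated phosphatase activity; potency for inhibition where a drop in reporter signal means calcineurin blockade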
T2 sequence (B9W6M3 whole entry): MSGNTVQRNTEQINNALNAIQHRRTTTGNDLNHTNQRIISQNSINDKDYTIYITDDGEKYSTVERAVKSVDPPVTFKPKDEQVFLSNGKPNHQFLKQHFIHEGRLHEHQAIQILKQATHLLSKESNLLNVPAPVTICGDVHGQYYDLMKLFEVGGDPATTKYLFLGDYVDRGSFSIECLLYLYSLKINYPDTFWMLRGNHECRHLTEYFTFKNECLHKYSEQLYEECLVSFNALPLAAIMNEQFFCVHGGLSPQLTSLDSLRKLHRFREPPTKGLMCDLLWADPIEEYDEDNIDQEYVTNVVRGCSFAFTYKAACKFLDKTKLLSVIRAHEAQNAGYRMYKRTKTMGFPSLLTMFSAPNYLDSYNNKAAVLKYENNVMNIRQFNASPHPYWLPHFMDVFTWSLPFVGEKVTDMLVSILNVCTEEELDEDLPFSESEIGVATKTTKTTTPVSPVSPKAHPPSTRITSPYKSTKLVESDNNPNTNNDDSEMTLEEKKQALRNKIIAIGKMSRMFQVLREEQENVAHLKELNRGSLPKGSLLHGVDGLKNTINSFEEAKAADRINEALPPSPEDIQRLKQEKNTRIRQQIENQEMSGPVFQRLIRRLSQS

[20] = viability of HCT116 lacking mutant beta-catenin – cell-based, human colon tumor, dose response (AID 1045); type: functional;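 also: HCT116 colon tumor cells with beta catenin knocked out; cells exposed to compound for 60 hours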
[21] = tested on: BJ; experiment: BJ-TERT-LT-ST fibroblast viability loss – cell-based, RAS-independent, luminescence, dose response (AID 1935); type: functional; settings: Homo sapiens;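 also: BJ fibroblasts immortalized with TERT plus LT and ST oncogenes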
[22] = DRD fibroblast viability loss – cell-based, non-viral oncogenic, luminescence, dose response (AID 1934); type: functional; settings: Homo sapiens
[23] = THP-1 cell cytotoxicity, dose response, cytotoxicity control for non-replicating M. tuberculosis project (AID 489025); type: functional
[24] = HepG2 cell cytotoxicity, dose response, cytotoxicity control for non-replicating M. tuberculosis project (AID 489018); type: functional; settings: Mycobacterium tuberculosis
[25] = tested on: Jurkat; experiment: blockers of NF-kB activation in T cells – Jurkat, luciferase reporter, luminescence, B- and T-cell, dose response (AID 489004); type: functional, cell-based; settings: Homo sapiens;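 also: NF-kB luciferase reporter Jurkat cells stimulated with PMA plus ionomycin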
[26] = Vero E6 cell cytotoxicity, dose response, cytotoxicity control for non-replicating M. tuberculosis project, secondary assay (AID 492998); type: functional, VeroE6; settings: Vero C1008
[27] = HEK-293T viability loss, compound-treated – cell-based, uHTS hits, cytotoxicity control for B/T-cell NF-kB inhibitor project, dose response (AID 489019); type: functional;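 also: IC50 reflects cytotoxicity as loss of cell viability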
[28] = cells; type: functional
[29] = tested on: BJ; experiment: growth inhibition of engineered Ras-driven BJ cells – cell-based, alamar blue fluorescence, cherrypicked samples, dose response (AID 2631); type: functional; settings: Homo sapiens;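 also: confirmatory dose-response assay in RAS-dependent BJ fibroblasts engineered with TERT, LT and ST, with cytotoxicity read by fluorescence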
[30] = tested on: INS1; experiment: INS-1E survival protection against cytokine death – cell-based, luminescence, retest, dose response (AID 449756); type: functional; settings: Rattus norvegicus;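 also: cell death triggered by IL-1 beta plus TNF-alpha plus IFN-gamma mixture; protective hits raise ATP signal compared with cytokine alone wells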
[31] = biological target: ATP-dependent molecular chaperone HSP82 (Candida albicans (strain WO-1) (Yeast), UniProt C4YTQ8); experiment: steroid-induced GRE reporter decrease in yeast – S. cerevisiae, luminescence, Hsp90 inhibitor project, dose response (AID 2400); type: functional, cell-based;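 also: beta-galactosidase luminescence from glucocorticoid response element reporter as proxy for Hsp90 function; inhibitor potency where signal loss means Hsp90 inhibition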
[32] = blockers of HIV-1 envelope-mediated cell-cell fusion – cherry-pick, dose response (AID 652057); type: functional, cell-based
[33] = viability loss in CEM21 cells – cell-based, CellTiter-Glo luminescence, cherry-picked, cytotoxicity control for viral fusion inhibitor project, dose response (AID 652042); type: functional;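 also: potency for signal decrease meaning cytotoxicity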
[34] = blockers of HIV-1 ZM109 envelope-driven cell-cell fusion – HeLa effector, CEM target cells, luciferase, cherry-pick, dose response (AID 652058); type: functional, cell-based;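 also: luciferase signal from HIV-1 Env mediated cell-cell fusion of effector and target cells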
[35] = HIV-1 AD8 envelope cell-cell fusion blockers – cherry-pick, dose response (AID 652062); type: functional, cell-based;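 also: luciferase signal from cell-cell fusion driven by HIV-1 clade B AD8 Env; potency is for inhibitors of fusion seen as a drop in luminescence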
[36] = Luminescence Cell-Based Dose Retest to Confirm Inhibitors of Cancer Stem Cells. [Related pubchem assays (depositor defined):AID2717, AID2721]; type: functional; settings: Homo sapiens
[37] = tested on: Escherichia coli; experiment: microbe, parasite or virus in culture
[38] = biological target: T3, Microphthalmia-associated transcription factor (Homo sapiens, UniProt O75030); experiment: reducers of TRPM1 reporter luminescence, concentration series – cell-based, SK-MEL-5, cherry-picked, set 3, MITF inhibitor project, dose response (AID 493073); type: functional;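 also: SK-MEL-5 melanoma cells with luciferase driven by the MITF target TRPM1 promoter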
T3 sequence (O75030 whole entry): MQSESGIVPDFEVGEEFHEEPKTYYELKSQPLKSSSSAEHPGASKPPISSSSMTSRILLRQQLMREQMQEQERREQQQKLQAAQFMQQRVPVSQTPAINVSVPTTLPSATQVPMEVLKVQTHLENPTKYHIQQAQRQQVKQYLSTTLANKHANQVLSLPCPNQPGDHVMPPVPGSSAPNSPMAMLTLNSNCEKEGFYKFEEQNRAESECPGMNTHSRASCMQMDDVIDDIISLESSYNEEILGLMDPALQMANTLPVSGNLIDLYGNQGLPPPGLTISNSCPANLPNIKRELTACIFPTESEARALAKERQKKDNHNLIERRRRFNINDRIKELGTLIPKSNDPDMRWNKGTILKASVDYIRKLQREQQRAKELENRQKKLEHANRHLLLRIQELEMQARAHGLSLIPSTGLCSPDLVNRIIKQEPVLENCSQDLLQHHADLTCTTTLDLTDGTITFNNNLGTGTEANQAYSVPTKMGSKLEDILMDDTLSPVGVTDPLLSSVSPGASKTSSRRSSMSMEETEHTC

[39] = tested on: A-375; experiment: MITF: Counter assay: A375 proliferation Measured in Cell-Based System Using Plate Reader - 2084-03_Inhibitor_Dose_DryPowder_Activity. [Related pubchem assays (depositor defined):AID488944]; type: functional; settings: Homo sapiens
[40] = biological target: Beta-2 adrenergic receptor (Homo sapiens, UniProt P07550); experiment: ADRB2 activation measured by internalization – cell-based, FAP fluorogen, flow cytometry, cherry pick 1, dose response (AID 588763); type: functional
Beta-2 adrenergic receptor, sequence (P07550 whole entry): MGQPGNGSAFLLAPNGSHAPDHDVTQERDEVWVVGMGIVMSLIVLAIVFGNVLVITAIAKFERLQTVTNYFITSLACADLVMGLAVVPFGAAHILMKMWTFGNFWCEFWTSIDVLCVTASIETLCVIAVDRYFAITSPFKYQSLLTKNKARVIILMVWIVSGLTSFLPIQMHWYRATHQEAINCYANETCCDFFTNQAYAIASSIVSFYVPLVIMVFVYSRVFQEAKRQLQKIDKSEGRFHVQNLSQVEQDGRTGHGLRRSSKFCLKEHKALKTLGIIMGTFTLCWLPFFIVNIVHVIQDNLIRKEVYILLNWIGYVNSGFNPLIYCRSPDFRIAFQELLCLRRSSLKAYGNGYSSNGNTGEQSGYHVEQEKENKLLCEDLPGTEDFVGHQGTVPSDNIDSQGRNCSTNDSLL

Beta-galactosidase, sequence (Q8VNN2 whole entry): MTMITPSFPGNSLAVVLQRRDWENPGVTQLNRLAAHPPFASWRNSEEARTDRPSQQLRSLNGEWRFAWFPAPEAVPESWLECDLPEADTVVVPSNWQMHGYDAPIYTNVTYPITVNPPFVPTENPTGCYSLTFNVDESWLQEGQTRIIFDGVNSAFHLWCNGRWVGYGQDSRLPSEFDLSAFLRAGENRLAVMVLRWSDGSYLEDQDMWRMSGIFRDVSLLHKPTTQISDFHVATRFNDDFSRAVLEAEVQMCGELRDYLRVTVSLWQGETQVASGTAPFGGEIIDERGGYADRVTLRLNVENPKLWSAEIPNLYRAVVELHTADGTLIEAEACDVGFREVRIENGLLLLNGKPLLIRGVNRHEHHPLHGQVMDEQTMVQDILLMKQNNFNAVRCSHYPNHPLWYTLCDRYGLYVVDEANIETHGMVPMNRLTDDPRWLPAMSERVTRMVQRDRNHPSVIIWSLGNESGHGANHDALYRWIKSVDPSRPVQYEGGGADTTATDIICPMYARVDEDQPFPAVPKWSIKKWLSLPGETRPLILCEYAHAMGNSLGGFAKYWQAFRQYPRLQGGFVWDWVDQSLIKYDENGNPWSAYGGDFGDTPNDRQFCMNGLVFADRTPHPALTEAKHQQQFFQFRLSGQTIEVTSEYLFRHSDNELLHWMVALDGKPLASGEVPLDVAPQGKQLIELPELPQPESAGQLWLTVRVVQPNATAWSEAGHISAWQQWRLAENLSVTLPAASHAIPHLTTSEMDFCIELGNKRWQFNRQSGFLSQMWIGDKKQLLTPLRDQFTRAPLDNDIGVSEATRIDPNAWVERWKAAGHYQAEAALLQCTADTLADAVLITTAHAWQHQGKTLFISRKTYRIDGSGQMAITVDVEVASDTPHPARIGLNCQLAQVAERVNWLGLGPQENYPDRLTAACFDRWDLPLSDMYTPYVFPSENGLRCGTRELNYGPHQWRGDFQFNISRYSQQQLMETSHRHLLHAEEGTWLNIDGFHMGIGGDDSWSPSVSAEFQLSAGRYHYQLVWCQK
ATP-dependent molecular chaperone HSP82, sequence (C4YTQ8 whole entry, the tested form may be a part): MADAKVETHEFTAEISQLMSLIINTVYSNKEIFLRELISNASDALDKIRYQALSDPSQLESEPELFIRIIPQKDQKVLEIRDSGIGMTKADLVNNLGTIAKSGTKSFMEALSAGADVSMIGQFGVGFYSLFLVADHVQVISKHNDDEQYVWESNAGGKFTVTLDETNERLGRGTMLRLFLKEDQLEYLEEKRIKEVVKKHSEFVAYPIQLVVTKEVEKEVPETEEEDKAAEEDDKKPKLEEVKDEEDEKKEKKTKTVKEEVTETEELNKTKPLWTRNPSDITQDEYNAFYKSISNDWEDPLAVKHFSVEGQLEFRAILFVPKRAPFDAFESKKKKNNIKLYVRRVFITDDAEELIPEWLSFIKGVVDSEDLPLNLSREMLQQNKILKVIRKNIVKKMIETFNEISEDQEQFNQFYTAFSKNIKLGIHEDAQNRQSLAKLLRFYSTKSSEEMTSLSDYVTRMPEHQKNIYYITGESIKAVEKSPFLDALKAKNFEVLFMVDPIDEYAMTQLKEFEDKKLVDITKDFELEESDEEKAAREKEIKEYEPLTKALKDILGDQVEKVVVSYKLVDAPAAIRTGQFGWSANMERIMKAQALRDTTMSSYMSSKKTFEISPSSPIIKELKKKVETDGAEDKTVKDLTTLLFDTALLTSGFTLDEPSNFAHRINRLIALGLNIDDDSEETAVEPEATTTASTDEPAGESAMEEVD
Protein Rev, sequence (P05866 whole entry): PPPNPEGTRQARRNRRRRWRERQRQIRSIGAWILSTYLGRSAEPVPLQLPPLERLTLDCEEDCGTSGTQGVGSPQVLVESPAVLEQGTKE
Nucleotide-binding oligomerization domain-containing protein 2, sequence (Q9HC29 whole entry, the tested form may be a part): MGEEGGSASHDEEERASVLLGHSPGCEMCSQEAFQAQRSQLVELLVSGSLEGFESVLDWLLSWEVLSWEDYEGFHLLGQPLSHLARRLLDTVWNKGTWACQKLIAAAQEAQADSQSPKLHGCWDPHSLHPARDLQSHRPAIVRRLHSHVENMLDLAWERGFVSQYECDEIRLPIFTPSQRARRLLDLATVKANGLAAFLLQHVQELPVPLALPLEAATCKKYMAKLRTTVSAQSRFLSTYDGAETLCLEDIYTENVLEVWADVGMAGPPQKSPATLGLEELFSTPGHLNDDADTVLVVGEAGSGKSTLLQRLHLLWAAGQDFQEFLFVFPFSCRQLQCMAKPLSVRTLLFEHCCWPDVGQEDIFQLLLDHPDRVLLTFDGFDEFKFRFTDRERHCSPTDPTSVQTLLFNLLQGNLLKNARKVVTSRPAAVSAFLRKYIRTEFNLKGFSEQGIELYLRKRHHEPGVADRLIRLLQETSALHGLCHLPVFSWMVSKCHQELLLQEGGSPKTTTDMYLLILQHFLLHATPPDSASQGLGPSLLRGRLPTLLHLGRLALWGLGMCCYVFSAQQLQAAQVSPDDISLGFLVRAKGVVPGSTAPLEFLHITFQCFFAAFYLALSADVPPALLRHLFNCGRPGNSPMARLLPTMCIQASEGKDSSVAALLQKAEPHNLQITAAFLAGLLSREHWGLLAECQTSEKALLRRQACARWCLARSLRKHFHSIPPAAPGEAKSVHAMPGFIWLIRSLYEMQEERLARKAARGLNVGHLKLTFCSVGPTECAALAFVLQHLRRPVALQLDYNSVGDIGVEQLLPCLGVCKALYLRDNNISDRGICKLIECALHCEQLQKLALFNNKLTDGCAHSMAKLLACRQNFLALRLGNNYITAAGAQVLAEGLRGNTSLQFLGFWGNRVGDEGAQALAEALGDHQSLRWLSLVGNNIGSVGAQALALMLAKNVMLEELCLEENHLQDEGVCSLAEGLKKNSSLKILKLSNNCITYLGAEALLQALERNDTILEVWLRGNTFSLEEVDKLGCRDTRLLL

CCC[N+](CC#Cc1ccccc1)(CCC)CC(=O)c1ccc(Cl)cc1
EC50 [1]: > 40 µM (inactive) | IC50 [2]: > 40 µM (not active)

Brc1csc(/C=N/Nc2nc3ccccc3s2)c1
AC50 [3]: 46 µM (active)

COc1ccc(/C=C/c2cc(-c3ccc(C)cc3)o[n+]2C)cc1
EC50 [4]: > 160 µM (inactive) | EC50 [5]: 0.894 µM (active) | EC50 [6]: 9.15 µM (active) | EC50 [7]: 0.601 µM (inconclusive) | IC50 [8]: > 79.4 µM (not active) | IC50 [9]: 5.25 µM (active) | EC50 [10]: 12.2 µM (active) | EC50 [11]: 2.27 µM (active) | EC50 [12]: 1.87 µM (inconclusive) | EC50 [13]: 0.576 µM (active) | IC50 [14]: 13.2 µM (active) | EC50 [15]: 8.29 µM (active) | IC50 [16]: 8.34 µM (active) | IC50 [17]: > 20 µM (inactive) | EC50 [18]: 0.778 µM (active) | EC50 [19]: > 180 µM (inactive) | EC50 [20]: 0.733 µM (active) | EC50 [21]: 4.41 µM (inconclusive) | EC50 [22]: 5.02 µM (active) | CC50 [23]: 2.38 µM (active) | CC50 [24]: 9.8 µM (active) | IC50 [25]: 3.13 µM (active) | CC50 [26]: > 20 µM (active) | IC50 [27]: > 80 µM (inactive) | IC50 [28]: 5.99 µM (active) | EC50 [29]: 3.43 µM (active) | AC50 [30]: 0.76 µM (active) | EC50 [31]: > 160 µM (inactive) | AC50 [32]: 6.83 µM (active) | AC50 [33]: 4.21 µM (active) | AC50 [34]: 3.33 µM (active) | AC50 [35]: 7.88 µM (active)

CC(C)c1ccc(NC(=O)c2snc3ccc(Cl)cc23)cc1
AC50 [36]: 3.02 µM (active) | AC50 [3]: 52.8 µM (active) | AC50 [37]: 23.1 µM (active)

O=C1N=C(NS(=O)(=O)Cc2ccccc2)S/C1=C/c1cc([N+](=O)[O-])ccc1O
EC50 [1]: > 40 µM (inactive) | IC50 [2]: 39.9 µM (not active)

COc1ccccc1CNCC(O)Cn1c2ccccc2c2ccccc21 (stereo unspecified)
EC50 [18]: 8.09 µM (active) | EC50 [20]: 8.31 µM (active) | AC50 [38]: 18.7 µM (active) | AC50 [39]: 19.2 µM (active) | AC50 [30]: 11.2 µM (active) | EC50 [40]: 12.2 µM (inactive)
